# Patent US20240269139A1, “COMPOUNDS FOR TARGETED PROTEIN DEGRADATION OF KINASES” (DANA-FARBER CANCER INSTITUTE, INC., priority 2020, published 2024)
# Read-outs that look alike come from different tables or passages of the source.
# What was measured:
# Format in all cases: cell-based
# [1] = tested on: protein kinases (human kinome); conditions: for logFC PDK3: PDK3 (Q15120-2); for logFC of LIMK2: LIMK2 P53671-3
# [2] = target: protein kinases (human kinome) (Homo sapiens, UniProt P30291); conditions: experiment wp084
# Sequence of protein kinases (human kinome) (Homo sapiens, UniProt P30291) (P30291 whole entry): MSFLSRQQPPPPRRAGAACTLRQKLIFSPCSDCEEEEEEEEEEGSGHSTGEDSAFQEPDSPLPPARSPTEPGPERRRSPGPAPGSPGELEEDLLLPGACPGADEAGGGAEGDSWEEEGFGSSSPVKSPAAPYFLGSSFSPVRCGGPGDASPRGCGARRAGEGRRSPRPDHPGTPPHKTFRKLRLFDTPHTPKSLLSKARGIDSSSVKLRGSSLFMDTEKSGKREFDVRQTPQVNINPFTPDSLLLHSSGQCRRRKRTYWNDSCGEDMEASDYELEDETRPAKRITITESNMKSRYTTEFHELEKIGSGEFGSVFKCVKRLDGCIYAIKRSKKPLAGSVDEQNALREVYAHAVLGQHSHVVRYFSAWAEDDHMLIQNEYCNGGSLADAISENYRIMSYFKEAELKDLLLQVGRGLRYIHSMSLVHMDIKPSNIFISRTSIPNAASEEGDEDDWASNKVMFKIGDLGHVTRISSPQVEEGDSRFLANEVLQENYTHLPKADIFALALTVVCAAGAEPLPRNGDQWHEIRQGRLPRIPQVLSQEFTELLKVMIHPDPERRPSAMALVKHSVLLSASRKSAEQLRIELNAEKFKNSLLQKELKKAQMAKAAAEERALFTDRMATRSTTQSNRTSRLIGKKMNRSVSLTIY
# [3] = target: protein kinases (human kinome) (Homo sapiens, UniProt P16591)
# Sequence of protein kinases (human kinome) (Homo sapiens, UniProt P16591) (P16591 whole entry): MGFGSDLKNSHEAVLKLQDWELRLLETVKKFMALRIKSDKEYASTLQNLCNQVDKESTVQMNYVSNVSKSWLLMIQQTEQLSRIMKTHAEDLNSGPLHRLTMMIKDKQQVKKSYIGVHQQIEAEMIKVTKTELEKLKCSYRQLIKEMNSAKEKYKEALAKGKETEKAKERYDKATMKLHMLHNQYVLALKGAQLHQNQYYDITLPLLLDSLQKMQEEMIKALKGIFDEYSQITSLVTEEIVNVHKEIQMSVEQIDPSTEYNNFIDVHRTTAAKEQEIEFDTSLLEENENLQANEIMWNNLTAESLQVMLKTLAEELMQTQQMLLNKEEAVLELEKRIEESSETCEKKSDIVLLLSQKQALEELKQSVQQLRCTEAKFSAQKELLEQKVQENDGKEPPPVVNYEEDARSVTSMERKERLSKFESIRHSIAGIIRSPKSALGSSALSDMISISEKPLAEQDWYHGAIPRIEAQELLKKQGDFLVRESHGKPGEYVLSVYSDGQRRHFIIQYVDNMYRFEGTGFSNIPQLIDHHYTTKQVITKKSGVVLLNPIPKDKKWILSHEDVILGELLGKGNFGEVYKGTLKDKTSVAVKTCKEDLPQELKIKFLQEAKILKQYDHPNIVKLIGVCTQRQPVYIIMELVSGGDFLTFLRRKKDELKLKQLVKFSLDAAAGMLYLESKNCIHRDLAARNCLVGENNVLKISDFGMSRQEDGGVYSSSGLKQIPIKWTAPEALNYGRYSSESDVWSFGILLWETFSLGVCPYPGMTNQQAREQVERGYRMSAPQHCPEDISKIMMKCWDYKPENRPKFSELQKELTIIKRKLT
# [4] = target: protein kinases (human kinome) (Homo sapiens, UniProt Q9H0K1); conditions: experiment wp045
# Sequence of protein kinases (human kinome) (Homo sapiens, UniProt Q9H0K1) (Q9H0K1 whole entry): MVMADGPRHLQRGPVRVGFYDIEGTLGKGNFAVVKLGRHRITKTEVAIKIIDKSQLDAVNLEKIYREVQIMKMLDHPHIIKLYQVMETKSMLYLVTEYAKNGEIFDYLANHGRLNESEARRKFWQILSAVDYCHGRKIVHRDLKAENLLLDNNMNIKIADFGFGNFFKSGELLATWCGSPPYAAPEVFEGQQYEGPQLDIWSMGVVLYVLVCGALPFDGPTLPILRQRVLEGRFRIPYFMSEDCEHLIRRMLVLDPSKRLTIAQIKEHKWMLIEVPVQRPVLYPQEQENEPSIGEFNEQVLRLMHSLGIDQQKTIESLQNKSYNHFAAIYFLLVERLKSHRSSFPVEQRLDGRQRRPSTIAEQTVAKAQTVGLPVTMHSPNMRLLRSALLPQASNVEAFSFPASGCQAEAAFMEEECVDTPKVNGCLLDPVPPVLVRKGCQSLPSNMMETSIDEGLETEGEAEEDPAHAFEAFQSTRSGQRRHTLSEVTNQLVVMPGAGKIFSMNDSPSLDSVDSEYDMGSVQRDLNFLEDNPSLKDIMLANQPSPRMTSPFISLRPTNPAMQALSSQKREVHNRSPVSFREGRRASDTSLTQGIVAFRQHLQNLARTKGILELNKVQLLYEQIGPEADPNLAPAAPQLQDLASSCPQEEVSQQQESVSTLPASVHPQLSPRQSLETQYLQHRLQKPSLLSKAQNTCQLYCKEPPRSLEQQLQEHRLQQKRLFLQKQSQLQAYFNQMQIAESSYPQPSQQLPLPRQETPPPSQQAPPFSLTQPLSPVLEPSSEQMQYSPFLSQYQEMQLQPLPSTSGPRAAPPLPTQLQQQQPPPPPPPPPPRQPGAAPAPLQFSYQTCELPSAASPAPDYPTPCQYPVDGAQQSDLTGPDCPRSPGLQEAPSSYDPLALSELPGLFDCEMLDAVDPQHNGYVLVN
# [5] = target: T1, protein kinases (human kinome) (Homo sapiens, UniProt O14965); conditions: experiment wp147, 4 uM
# T1 sequence (O14965 1-403): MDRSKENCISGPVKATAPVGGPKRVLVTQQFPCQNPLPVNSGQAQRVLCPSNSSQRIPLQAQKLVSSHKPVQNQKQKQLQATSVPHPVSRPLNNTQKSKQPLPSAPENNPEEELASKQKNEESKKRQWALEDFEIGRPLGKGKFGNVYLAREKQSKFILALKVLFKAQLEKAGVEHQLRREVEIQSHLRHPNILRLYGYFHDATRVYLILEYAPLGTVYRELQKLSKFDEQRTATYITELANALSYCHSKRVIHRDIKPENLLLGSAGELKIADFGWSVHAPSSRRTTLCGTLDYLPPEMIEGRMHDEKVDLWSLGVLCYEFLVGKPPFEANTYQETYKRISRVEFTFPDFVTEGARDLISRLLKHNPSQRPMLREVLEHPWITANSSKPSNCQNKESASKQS
structure (smiles),measurement,setting,value
CC(=O)c1c(C)c2cnc(Nc3ccc(N4CCN(CCOCCOCCOCCNC(=O)COc5cccc6c5C(=O)N(C5CCC(=O)NC5=O)C6=O)CC4)cn3)nc2n(C2CCCC2)c1=O (stereo not shown) [BSJ.03.123],logFC,"[1]; ACAD10 (Q6JQN1-5), experiment wp084",−0.5275
same,logFC,"[1]; GK P32189-3, experiment wp084",−0.4109
same,logFC PDK3,[1]; experiment wp084,−0.5908
same,logFC PDK3 (Q15120-2),[1]; experiment wp084,−0.5908
same,logFC HK1,"[1]; protein HK1 (P19367-3), experiment wp084, down",−0.3484
same,logFC of WEE1,[2]; WEE1 P30291-1,−0.3883
same,logFC WEE1 (P30291-1),[2],−0.3883
Cc1ccc(NC(=O)c2cccc(C(F)(F)F)c2)cc1N1Cc2cnc(Nc3ccc(N4CCN(CCCCCCOc5cccc6c5C(=O)N(C5CCC(=O)NC5=O)C6=O)CC4)nc3)nc2N(C)C1=O (stereo not shown) [DB0663],logFC of SRC,"[1]; Accession P12931-2, experiment wp045",−0.4247
same,logFC MAP3K20 (Q9NYL2-2),[1]; Experiment wp046,−0.8012
same,logFC LCK,"[1]; LCK, accession P06239-3, experiment wp045, direction of change down",−0.5823
same,logFC,"[1]; SRC (P12931-2) protein abundance, degrader vs DMSO, down",−0.4247
same,logFC,"[1]; TNK2 (Q07912-3), experiment wp045, direction down",−0.9271
same,logFC TNK2,"[1]; TNK2 Q07912-3, experiment wp045",−0.9271
same,kinases the bifunctional compound degrades,[1]; as stated for the structure in the embodiments,"CDK4, BLK, FER, LIMK2, GAK, CSK, SIK2, LCK, PTK2B, SRC, ABL2, MAPK14,a MAPK9, MAP4K2, MKNK2, MAP3K20, and TNK2"
same,logFC MAP3K20 (Q9NYL2-2),[1]; experiment wp045,−0.8012
same,logFC LCK (P06239-3),"[1]; experiment wp045, direction of change down",−0.5823
same,Kinase hits,"[1]; kinases significantly downregulated vs DMSO (fold change cutoff −1.25, P-value<0.01), ≤8 h, 0.1-5 μM degrader, 7 cell lines","CDK4, BLK, FER, LIMK2, GAK, CSK, SIK2, LCK, PTK2B, SRC, ABL2, MAPK14.a MAPK9, MAP4K2, MKNK2, MAP3K20, TNK2"
same,Total no. kinase hits,[1]; number of degraded kinases per library compound,17
same,logFC of FER (P16591-1),"[3]; Experiment wp045, down",−0.9581
same,logFC of FER,"[3]; FER P16591-1, experiment wp045",−0.9581
same,logFC of SIK2,[4]; Accession Q9H0K1,−0.4765
same,logFC SIK2,"[4]; SIK2 (Q9H0K1), down",−0.4765
CC(C)(C)c1nc(-c2cccc(NS(=O)(=O)c3c(F)cccc3F)c2F)c(-c2ccnc(NCCOCCNC(=O)CCOCCOCCNc3cccc4c3C(=O)N(C3CCC(=O)NC3=O)C4=O)n2)s1 (stereo not shown) [DD.03.106],logFC,"[1]; ACAD10 (Q6JQN1-5), experiment wp147, 4 uM",−0.7404
same,logFC of CDK17,"[1]; Accession Q00537-2, experiment wp137",−0.8682
same,logFC MAP3K20 (Q9NYL2-2),"[1]; Experiment wp147, 2 uM",−0.7388
same,logFC MAP3K20 (Q9NYL2-2),"[1]; Experiment wp147, 4 uM",−0.4901
same,logFC,"[1]; GK P32189-3, experiment wp147, 4 uM",−0.4811
same,logFC,"[1]; LIMK2 (P53671-3), experiment wp047, direction down",−0.962
same,logFC,"[1]; LIMK2 (P53671-3), experiment wp147, 1 uM, direction down",−0.8736
same,logFC,"[1]; LIMK2 (P53671-3), experiment wp147, 2 uM, direction down",−1.082
same,logFC,"[1]; LIMK2 (P53671-3), experiment wp147, 4 uM, direction down",−0.9319
same,logFC of LIMK2,[1]; experiment wp047,−0.962
same,logFC of LIMK2,"[1]; experiment wp147, 1 uM",−0.8736
same,logFC of LIMK2,"[1]; experiment wp147, 2 uM",−1.082
same,logFC of LIMK2,"[1]; experiment wp147, 4 uM",−0.9319
same,logFC PDK3,[1]; experiment wp137,−0.3571
same,logFC PDK3,"[1]; experiment wp147, 4 uM",−0.6564
same,logFC CDK16 (Q00536-2),[1]; experiment wp137,−1.175
same,logFC PDK3 (Q15120-2),[1]; experiment wp137,−0.3571
same,logFC of CDK17 (Q00537-2),[1]; experiment wp137,−0.8682
same,logFC CDK16 (Q00536-2),"[1]; experiment wp147, 1 uM",−0.5427
same,logFC CDK16 (Q00536-2),"[1]; experiment wp147, 2 uM",−0.5385
same,logFC MAP3K20 (Q9NYL2-2),"[1]; experiment wp147, 2 uM",−0.7388
same,logFC CDK16 (Q00536-2),"[1]; experiment wp147, 4 uM",−0.4393
same,logFC MAP3K20 (Q9NYL2-2),"[1]; experiment wp147, 4 uM",−0.4901
same,logFC AURKA (O14965),[5],−0.3302
